Key:
Experiment in all cases: KINOMEscan competition binding
Details in all cases: compound 10.0 µM
[1] = target: MYLK2 (human) (UniProt Q9H1R3)
[2] = target: PLK3 (human) (UniProt Q9H4B4)
[3] = target: STK33 (human) (UniProt Q9BYT3)
[4] = target: ACVR1B (human) (UniProt P36896)
[5] = target: FRK (human) (UniProt P42685)
[6] = target: PAK1 (human) (UniProt Q13153)
[7] = target: CAMK1G (human) (UniProt Q96NX5)
[8] = target: MUSK (human) (UniProt O15146)
[9] = tested on: KIT (human), P10721 [D816H]
[10] = target: CDC42BPA (human) (UniProt Q5VT25)
[11] = target: TSSK1B (human) (UniProt Q9BXA7)
[12] = target: RPS6KA2 KD2 (human) (UniProt Q15349)
[13] = target: CHUK (human) (UniProt O15111)
[14] = target: NUAK1 (human) (UniProt O60285)
[15] = target: CSNK2A1 (human) (UniProt P68400)
[16] = target: MAP2K1 (human) (UniProt Q02750)
[17] = target: CIT (human) (UniProt O14578)
[18] = target: FGR (human) (UniProt P09769)
[19] = target: CSNK1A1L (human) (UniProt Q8N752)
[20] = target: FER (human) (UniProt P16591)
[21] = target: NTRK1 (human) (UniProt P04629)
[22] = target: STK32B (human) (UniProt Q9NY57)
[23] = target: STK25 (human) (UniProt O00506)
[24] = target: STK4 (human) (UniProt Q13043)
[25] = target: CDK16 (human) (UniProt Q00536)
[26] = target: NTRK3 (human) (UniProt Q16288)
[27] = target: EPHB2 (human) (UniProt P29323)
[28] = target: CDK8 (human) (UniProt P49336)
[29] = target: PHKG1 (human) (UniProt Q16816)
[30] = target: NEK7 (human) (UniProt Q8TDX7)
[31] = target: TYK2 JH2 pseudokinase (human) (UniProt P29597)
[32] = target: ADCK4 (human) (UniProt Q96D53)
[33] = target: ICK (human) (UniProt Q9UPZ9)
[34] = target: ROCK2 (human) (UniProt O75116)
[35] = target: ROS1 (human) (UniProt P08922)
[36] = target: TBK1 (human) (UniProt Q9UHD2)
[37] = target: PLK1 (human) (UniProt P53350)
[38] = target: PIK3CA (human) (UniProt P42336)
[39] = target: MAP3K9 (human) (UniProt P80192)
[40] = target: GSK3B (human) (UniProt P49841)

ROCK2 (human), sequence (O75116 whole entry, looked up): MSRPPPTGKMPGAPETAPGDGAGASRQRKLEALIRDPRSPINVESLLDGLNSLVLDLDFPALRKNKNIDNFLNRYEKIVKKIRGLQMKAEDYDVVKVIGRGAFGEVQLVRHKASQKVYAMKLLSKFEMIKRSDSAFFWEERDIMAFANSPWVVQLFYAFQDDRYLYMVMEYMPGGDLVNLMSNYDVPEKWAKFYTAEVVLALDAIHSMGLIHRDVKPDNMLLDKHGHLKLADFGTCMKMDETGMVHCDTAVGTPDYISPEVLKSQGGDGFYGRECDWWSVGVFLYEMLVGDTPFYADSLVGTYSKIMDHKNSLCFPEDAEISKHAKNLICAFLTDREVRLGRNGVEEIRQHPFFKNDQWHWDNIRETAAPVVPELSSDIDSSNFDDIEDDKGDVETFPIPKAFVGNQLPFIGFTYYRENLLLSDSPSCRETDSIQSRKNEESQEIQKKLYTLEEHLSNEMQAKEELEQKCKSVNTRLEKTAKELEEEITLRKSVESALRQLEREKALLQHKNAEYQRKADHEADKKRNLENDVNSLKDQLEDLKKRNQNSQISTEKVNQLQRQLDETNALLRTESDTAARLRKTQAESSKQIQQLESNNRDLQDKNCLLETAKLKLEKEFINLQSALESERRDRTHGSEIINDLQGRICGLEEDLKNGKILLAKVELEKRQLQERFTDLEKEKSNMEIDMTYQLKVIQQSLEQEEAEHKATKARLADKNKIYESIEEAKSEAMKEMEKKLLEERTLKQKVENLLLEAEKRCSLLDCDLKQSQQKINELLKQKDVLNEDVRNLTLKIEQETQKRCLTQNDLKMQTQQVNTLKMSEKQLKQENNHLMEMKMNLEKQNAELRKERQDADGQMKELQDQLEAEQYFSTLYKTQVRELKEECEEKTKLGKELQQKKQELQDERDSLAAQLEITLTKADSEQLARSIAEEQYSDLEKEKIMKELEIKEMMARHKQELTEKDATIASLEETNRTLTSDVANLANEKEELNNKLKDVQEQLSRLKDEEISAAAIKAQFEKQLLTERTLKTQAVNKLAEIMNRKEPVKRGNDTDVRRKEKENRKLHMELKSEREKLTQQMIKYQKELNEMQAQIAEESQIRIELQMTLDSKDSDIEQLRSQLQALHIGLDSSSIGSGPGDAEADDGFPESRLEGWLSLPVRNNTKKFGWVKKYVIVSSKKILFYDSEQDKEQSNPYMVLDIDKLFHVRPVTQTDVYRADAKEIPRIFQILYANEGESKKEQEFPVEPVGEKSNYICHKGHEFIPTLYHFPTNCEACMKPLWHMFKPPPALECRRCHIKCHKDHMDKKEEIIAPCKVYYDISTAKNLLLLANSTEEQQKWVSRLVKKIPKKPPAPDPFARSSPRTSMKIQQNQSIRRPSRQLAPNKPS
PLK1 (human), sequence (P53350 whole entry, looked up): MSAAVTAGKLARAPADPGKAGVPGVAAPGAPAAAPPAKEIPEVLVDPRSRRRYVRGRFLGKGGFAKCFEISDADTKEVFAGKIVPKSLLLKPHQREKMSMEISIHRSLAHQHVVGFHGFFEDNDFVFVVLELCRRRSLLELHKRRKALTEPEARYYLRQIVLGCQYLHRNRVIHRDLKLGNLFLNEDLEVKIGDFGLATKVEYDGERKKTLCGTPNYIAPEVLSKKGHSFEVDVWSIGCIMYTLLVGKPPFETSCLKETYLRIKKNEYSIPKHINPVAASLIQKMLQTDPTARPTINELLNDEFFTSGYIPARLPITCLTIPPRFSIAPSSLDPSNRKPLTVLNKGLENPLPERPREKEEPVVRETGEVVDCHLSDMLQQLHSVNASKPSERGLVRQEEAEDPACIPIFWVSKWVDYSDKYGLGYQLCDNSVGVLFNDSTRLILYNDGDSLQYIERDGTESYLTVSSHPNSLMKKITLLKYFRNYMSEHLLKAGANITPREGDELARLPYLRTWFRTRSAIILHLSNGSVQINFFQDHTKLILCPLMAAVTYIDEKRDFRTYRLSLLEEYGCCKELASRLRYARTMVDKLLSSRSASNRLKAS
FRK (human), sequence (P42685 whole entry, looked up): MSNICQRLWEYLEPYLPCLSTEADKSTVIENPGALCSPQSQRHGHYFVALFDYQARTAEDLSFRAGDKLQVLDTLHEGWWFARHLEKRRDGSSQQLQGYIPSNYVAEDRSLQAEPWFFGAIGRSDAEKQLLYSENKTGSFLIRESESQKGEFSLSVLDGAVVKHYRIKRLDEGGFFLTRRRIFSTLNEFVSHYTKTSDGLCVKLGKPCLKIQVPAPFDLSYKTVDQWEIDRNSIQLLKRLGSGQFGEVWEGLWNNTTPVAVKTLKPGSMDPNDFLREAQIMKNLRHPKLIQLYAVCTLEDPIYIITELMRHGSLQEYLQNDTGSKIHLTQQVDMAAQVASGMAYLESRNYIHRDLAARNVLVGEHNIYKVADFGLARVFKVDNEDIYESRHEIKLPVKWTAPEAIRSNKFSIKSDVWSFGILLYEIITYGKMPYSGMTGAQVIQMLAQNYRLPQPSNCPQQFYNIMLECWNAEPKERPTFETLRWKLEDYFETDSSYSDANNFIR
TBK1 (human), sequence (Q9UHD2 whole entry, looked up): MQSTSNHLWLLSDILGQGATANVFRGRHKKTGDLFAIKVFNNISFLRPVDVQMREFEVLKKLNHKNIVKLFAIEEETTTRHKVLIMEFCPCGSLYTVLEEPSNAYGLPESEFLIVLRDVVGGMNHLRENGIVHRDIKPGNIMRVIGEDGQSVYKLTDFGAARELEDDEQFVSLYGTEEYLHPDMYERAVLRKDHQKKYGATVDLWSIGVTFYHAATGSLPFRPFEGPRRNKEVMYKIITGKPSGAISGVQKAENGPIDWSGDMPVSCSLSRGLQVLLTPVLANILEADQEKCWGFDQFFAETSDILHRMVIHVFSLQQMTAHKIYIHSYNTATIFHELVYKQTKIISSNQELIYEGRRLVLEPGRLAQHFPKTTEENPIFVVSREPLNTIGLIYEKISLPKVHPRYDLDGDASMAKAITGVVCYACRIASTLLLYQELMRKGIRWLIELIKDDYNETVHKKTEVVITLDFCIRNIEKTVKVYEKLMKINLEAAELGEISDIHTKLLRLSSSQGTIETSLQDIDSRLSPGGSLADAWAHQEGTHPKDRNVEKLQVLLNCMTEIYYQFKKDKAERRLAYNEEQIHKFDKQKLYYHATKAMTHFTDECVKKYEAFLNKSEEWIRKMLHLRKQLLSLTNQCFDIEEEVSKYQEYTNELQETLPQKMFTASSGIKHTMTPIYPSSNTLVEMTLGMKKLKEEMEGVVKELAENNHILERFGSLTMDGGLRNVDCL
TYK2 JH2 pseudokinase (human), sequence (P29597 whole entry, looked up): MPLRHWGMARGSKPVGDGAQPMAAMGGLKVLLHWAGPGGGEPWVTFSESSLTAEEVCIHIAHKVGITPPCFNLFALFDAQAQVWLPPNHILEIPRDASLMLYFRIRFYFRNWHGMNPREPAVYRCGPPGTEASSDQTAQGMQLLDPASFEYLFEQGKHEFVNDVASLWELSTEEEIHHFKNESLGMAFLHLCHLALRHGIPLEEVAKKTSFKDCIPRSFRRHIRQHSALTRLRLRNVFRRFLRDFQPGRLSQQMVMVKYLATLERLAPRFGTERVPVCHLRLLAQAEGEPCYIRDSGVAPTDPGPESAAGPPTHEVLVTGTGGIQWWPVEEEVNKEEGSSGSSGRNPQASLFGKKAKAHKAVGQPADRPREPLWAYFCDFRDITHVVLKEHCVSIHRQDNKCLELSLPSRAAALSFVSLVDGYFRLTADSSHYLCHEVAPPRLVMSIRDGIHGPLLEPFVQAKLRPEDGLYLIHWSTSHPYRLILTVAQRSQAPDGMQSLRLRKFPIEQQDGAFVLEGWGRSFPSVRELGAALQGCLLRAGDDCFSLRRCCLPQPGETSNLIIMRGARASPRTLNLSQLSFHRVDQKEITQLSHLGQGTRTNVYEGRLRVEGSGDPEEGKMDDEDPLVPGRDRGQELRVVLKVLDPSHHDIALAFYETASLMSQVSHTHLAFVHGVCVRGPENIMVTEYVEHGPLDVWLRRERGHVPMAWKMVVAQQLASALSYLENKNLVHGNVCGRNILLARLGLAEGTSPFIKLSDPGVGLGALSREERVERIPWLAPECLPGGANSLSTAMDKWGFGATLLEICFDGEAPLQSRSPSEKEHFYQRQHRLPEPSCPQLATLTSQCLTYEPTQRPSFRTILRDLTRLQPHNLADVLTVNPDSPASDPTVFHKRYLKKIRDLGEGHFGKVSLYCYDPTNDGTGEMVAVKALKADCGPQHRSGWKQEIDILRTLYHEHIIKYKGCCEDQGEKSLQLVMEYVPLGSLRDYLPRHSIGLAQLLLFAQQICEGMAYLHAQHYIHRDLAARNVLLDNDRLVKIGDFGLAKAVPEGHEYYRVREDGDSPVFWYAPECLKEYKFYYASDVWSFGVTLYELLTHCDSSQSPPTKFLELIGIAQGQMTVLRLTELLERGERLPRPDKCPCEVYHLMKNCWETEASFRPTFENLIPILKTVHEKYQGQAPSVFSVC
FGR (human), sequence (P09769 whole entry, looked up): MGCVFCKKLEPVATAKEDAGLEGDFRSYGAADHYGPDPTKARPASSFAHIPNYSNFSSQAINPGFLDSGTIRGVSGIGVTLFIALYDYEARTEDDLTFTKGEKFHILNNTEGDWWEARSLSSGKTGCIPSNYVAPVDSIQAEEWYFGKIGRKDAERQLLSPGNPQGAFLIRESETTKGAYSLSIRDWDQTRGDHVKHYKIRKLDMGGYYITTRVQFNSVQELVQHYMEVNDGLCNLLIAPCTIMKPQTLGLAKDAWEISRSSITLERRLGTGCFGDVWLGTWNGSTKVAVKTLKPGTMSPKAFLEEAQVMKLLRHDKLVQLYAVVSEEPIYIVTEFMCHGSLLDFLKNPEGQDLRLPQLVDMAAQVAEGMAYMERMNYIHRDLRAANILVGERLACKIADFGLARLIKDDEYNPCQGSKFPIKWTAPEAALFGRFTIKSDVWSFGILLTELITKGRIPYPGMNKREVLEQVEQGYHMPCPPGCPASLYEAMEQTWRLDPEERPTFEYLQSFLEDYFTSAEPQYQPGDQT

Structure (SMILES)	kinase still bound, per cent of control [1] [%]	kinase still bound, per cent of control [2] [%]	kinase still bound, per cent of control [3] [%]	kinase still bound, per cent of control [4] [%]	kinase still bound, per cent of control [5] [%]	kinase still bound, per cent of control [6] [%]	kinase still bound, per cent of control [7] [%]	kinase still bound, per cent of control [8] [%]	kinase still bound, per cent of control [9] [%]	kinase still bound, per cent of control [10] [%]	kinase still bound, per cent of control [11] [%]	kinase still bound, per cent of control [12] [%]	kinase still bound, per cent of control [13] [%]	kinase still bound, per cent of control [14] [%]	kinase still bound, per cent of control [15] [%]	kinase still bound, per cent of control [16] [%]	kinase still bound, per cent of control [17] [%]	kinase still bound, per cent of control [18] [%]	kinase still bound, per cent of control [19] [%]	kinase still bound, per cent of control [20] [%]	other results
COc1cc2ncnc(Nc3cccc(Cl)c3)c2cc1OC	40	85	73	100	29	85	64	100	59	77	100	90	72	98	19	25	7.4	32	72	82	kinase still bound, per cent of control [21]: 88%; kinase still bound, per cent of control [22]: 100%; kinase still bound, per cent of control [23]: 77%; kinase still bound, per cent of control [24]: 100%; kinase still bound, per cent of control [25]: 90%; kinase still bound, per cent of control [26]: 87%; kinase still bound, per cent of control [27]: 67%; kinase still bound, per cent of control [28]: 100%; kinase still bound, per cent of control [29]: 67%; kinase still bound, per cent of control [30]: 88%; kinase still bound, per cent of control [31]: 55%; kinase still bound, per cent of control [32]: 28%; kinase still bound, per cent of control [33]: 100%; kinase still bound, per cent of control [34]: 39%; kinase still bound, per cent of control [35]: 61%; kinase still bound, per cent of control [36]: 45%; kinase still bound, per cent of control [37]: 92%; kinase still bound, per cent of control [38]: 76%; kinase still bound, per cent of control [39]: 86%; kinase still bound, per cent of control [40]: 90%
COc1cc2c(Nc3ccc(NC(=O)c4ccccc4)cc3)ncnc2cc1OCCCN1CCOCC1	100	99	67	100	82	82	66	100	69	85	100	100	100	92	87	0.1	59	19	99	65	kinase still bound, per cent of control [21]: 16%; kinase still bound, per cent of control [22]: 100%; kinase still bound, per cent of control [23]: 63%; kinase still bound, per cent of control [24]: 78%; kinase still bound, per cent of control [25]: 64%; kinase still bound, per cent of control [26]: 98%; kinase still bound, per cent of control [27]: 100%; kinase still bound, per cent of control [28]: 100%; kinase still bound, per cent of control [29]: 53%; kinase still bound, per cent of control [30]: 100%; kinase still bound, per cent of control [31]: 83%; kinase still bound, per cent of control [32]: 66%; kinase still bound, per cent of control [33]: 100%; kinase still bound, per cent of control [34]: 34%; kinase still bound, per cent of control [35]: 41%; kinase still bound, per cent of control [36]: 66%; kinase still bound, per cent of control [37]: 100%; kinase still bound, per cent of control [38]: 100%; kinase still bound, per cent of control [39]: 70%; kinase still bound, per cent of control [40]: 70%
N#Cc1cc(-c2ccnc(Nc3ccc(-n4cnc(-c5cccnc5)n4)cc3)n2)cc(N2CCOCC2)c1	56	93	88	76	92	65	48	92	50	68	100	75	55	100	2.2	50	0.9	54	80	99	kinase still bound, per cent of control [21]: 53%; kinase still bound, per cent of control [22]: 100%; kinase still bound, per cent of control [23]: 64%; kinase still bound, per cent of control [24]: 89%; kinase still bound, per cent of control [25]: 6.8%; kinase still bound, per cent of control [26]: 100%; kinase still bound, per cent of control [27]: 89%; kinase still bound, per cent of control [28]: 80%; kinase still bound, per cent of control [29]: 65%; kinase still bound, per cent of control [30]: 45%; kinase still bound, per cent of control [31]: 12%; kinase still bound, per cent of control [32]: 0.25%; kinase still bound, per cent of control [33]: 2.6%; kinase still bound, per cent of control [34]: 25%; kinase still bound, per cent of control [35]: 17%; kinase still bound, per cent of control [36]: 35%; kinase still bound, per cent of control [37]: 99%; kinase still bound, per cent of control [38]: 100%; kinase still bound, per cent of control [39]: 22%; kinase still bound, per cent of control [40]: 3.1%
